Results taken from ChEMBL document CHEMBL3044826, “Design, synthesis and biological evaluation of some novel substituted 2-mercapto-3-phenethylquinazolines as antitumor agents” (2013).
The source made the active and inactive calls. No cut-off for these calls is given here.

How the values were obtained:
OVCAR-5 = test: Cytotoxicity against Homo sapiens (human) OVCAR5 cells assessed as growth inhibition at 10 uM after 48 hr by coulter counter analysis; type: functional; conditions: OVCAR-5, 48 h, read-out: GI
MDA-MB-231 = test: Cytotoxicity against Homo sapiens (human) MDA-MB-231 cells assessed as growth inhibition at 10 uM after 48 hr by coulter counter analysis; type: functional; conditions: MDA-MB-231, 48 h, read-out: GI
NCI-H322M = test: Cytotoxicity against Homo sapiens (human) NCI-H322M cells assessed as growth inhibition at 10 uM after 48 hr by coulter counter analysis; type: functional; conditions: read-out: GI
U-251 = test: Cytotoxicity against Homo sapiens (human) U251 cells assessed as growth inhibition at 10 uM after 48 hr by coulter counter analysis; type: functional; conditions: U-251, 48 h, read-out: GI
CCRF-CEM = test: Cytotoxicity against Homo sapiens (human) CCRF-CEM cells assessed as growth inhibition at 10 uM after 48 hr by coulter counter analysis; type: functional; conditions: read-out: GI
ACHN = test: Cytotoxicity against Homo sapiens (human) ACHN cells assessed as growth inhibition at 10 uM after 48 hr by coulter counter analysis; type: functional; conditions: read-out: GI
MCF7 = test: Cytotoxicity against Homo sapiens (human) MCF7 cells assessed as growth inhibition at 10 uM after 48 hr by coulter counter analysis; type: functional; conditions: MCF7, 48 h, read-out: GI
HCT-15 = test: Cytotoxicity against Homo sapiens (human) HCT15 cells assessed as growth inhibition at 10 uM after 48 hr by coulter counter analysis; type: functional; conditions: HCT-15, 48 h, read-out: GI
IGROV-1 = test: Cytotoxicity against Homo sapiens (human) IGROV1 cells assessed as growth inhibition at 10 uM after 48 hr by coulter counter analysis; type: functional; conditions: IGROV-1, 48 h, read-out: GI
NCI-H460 = test: Cytotoxicity against Homo sapiens (human) NCI-H460 cells assessed as growth inhibition at 10 uM after 48 hr by coulter counter analysis; type: functional; conditions: NCI-H460, 48 h, read-out: GI
T47D = test: Cytotoxicity against Homo sapiens (human) T47D cells assessed as growth inhibition at 10 uM after 48 hr by coulter counter analysis; type: functional; conditions: read-out: GI
SK-MEL-28 = test: Cytotoxicity against Homo sapiens (human) SK-MEL-28 cells assessed as growth inhibition at 10 uM after 48 hr by coulter counter analysis; type: functional; conditions: SK-MEL-28, 48 h, read-out: GI
HL-60(TB) = test: Cytotoxicity against Homo sapiens (human) HL-60(TB) cells assessed as growth inhibition at 10 uM after 48 hr by coulter counter analysis; type: functional; conditions: HL-60, 48 h, read-out: GI
NCI-H522 [1] = test: Cytotoxicity against Homo sapiens (human) NCI-H522 cells assessed as growth inhibition at 10 uM after 48 hr by coulter counter analysis; type: functional; conditions: NCI-H522, 48 h, read-out: GI
786-0 = test: Cytotoxicity against Homo sapiens (human) 786-0 cells assessed as growth inhibition at 10 uM after 48 hr by coulter counter analysis; type: functional; conditions: 786-0, 48 h, read-out: GI
MDA-MB-435 = test: Cytotoxicity against Homo sapiens (human) MDA-MB-435 cells assessed as growth inhibition at 10 uM after 48 hr by coulter counter analysis; type: functional; conditions: MDA-MB-435, 48 h, read-out: GI
Hs-578T = test: Cytotoxicity against Homo sapiens (human) Hs578T cells assessed as growth inhibition at 10 uM after 48 hr by coulter counter analysis; type: functional; conditions: read-out: GI
UACC-257 = test: Cytotoxicity against Homo sapiens (human) UACC257 cells assessed as growth inhibition at 10 uM after 48 hr by coulter counter analysis; type: functional; conditions: UACC-257, 48 h, read-out: GI
RXF 393 = test: Cytotoxicity against Homo sapiens (human) RXF393 cells assessed as growth inhibition at 10 uM after 48 hr by coulter counter analysis; type: functional; conditions: RXF 393, 48 h, read-out: GI
MOLT-4 = test: Cytotoxicity against Homo sapiens (human) MOLT4 cells assessed as growth inhibition at 10 uM after 48 hr by coulter counter analysis; type: functional; conditions: MOLT-4, 48 h, read-out: GI
NCI-H226 = test: Cytotoxicity against Homo sapiens (human) NCI-H226 cells assessed as growth inhibition at 10 uM after 48 hr by coulter counter analysis; type: functional; conditions: NCI-H226, 48 h, read-out: GI
NCI-H522 [2] = test: Cytotoxicity against Homo sapiens (human) NCI-H522 cells at 10 uM after 48 hr by coulter counter analysis; type: functional, cell-based

Compound | inhibition of growth at 10 µM (OVCAR-5) | inhibition of growth at 10 µM (MDA-MB-231) | inhibition of growth at 10 µM (NCI-H322M) | inhibition of growth at 10 µM (U-251) | inhibition of growth at 10 µM (CCRF-CEM) | inhibition of growth at 10 µM (ACHN) | inhibition of growth at 10 µM (MCF7) | inhibition of growth at 10 µM (HCT-15) | inhibition of growth at 10 µM (IGROV-1) | inhibition of growth at 10 µM (NCI-H460) | inhibition of growth at 10 µM (T47D) | inhibition of growth at 10 µM (SK-MEL-28) | inhibition of growth at 10 µM (HL-60(TB)) | inhibition of growth at 10 µM (786-0) | inhibition of growth at 10 µM (MDA-MB-435) | inhibition of growth at 10 µM (Hs-578T) | inhibition of growth at 10 µM (UACC-257) | inhibition of growth at 10 µM (RXF 393) | inhibition of growth at 10 µM (MOLT-4) | inhibition of growth at 10 µM (NCI-H226) | other results
O=c1c2ccccc2[nH]c(=S)n1CCc1ccccc1 | < 10% | < 10% | < 10% | < 10% | 16% | < 10% | 31% | < 10% | < 10% | < 10% | < 10% | < 10% | 11% | < 10% | < 10% | < 10% | < 10% | < 10% | 23% | < 10% | inhibition of growth at 10 µM (NCI-H522 [1]): < 10%
CCn1c(S)nnc1CSc1nc2ccccc2c(=O)n1CCc1ccccc1 | < 10% | 18% | 27% | < 10% | 27% | 15% | 16% | 12% | < 10% | 31% | 27% | < 10% | 30% | 19% | 16% | < 10% | 12% | < 10% | 29% | 35% | Activity (NCI-H522 [2]): Active
